Key:
AR [1] = experiment: AR mRNA expression by real-time RT-qPCR in 22Rv1 cells; assay type: cell-based; details: 200 nM, 48 hours, vs control before treatment
Procedure: (§1) Prostate cancer cell line 22Rv1 was treated with KPT-8602 and the effect of the treatment on the expression of AR and AR splice variant AR-v7 was determined. 22Rv1 cells were treated with 200 nM KPT-8602 for 48 hours and the mRNA expression levels of AR and AR-v7 before (control) and after treatment were measured by real-time RT-qPCR using High Capacity cDNA Reverse Transcription Kit and SYBR Green Master Mixture from Applied Biosystems (Waltham, MA).

AR-v7 = AR-v7 mRNA expression by real-time RT-qPCR in 22Rv1 cells; assay type: cell-based; details: 200 nM, 48 hours, vs control before treatment
Procedure: as §1

AR [2] = experiment: Western blot of AR protein levels; assay type: cell-based; details: 22Rv1 cells, 250 nM, 72 hours
Procedure: (§2) Total proteins were subjected to 10 or 14% SDS-PAGE, and electrophoretically transferred to nitrocellulose membrane. The membranes were incubated with specific primary antibodies, and subsequently incubated with secondary antibody conjugated with peroxidase (Bio-rad, Hercules, CA). The signal was detected using the chemiluminescent detection system (PIERCE).

ARv = experiment: Western blot of ARv protein levels; assay type: cell-based; details: 22Rv1 cells, 250 nM, 72 hours
Procedure: as §2

[3] = system: 22Rv1 prostate cancer xenograft; experiment: 22Rv1 prostate cancer xenograft model in CB.17 SCID mice; assay type: in vivo; details: 15 mg/kg, QDx5/week
Procedure: The effect of KPT-8602 (15 mg/kg, QDx5/week) in a 22Rv1 prostate cancer xenograft model in CB.17 SCID mice was evaluated. Mouse weights and tumor size were monitored three times a week. Each mouse was euthanized at the end of study (Day 35) or when tumor volume reached 1000 mm^3, whichever comes first.

[4] = system: xenograft samples derived from 22Rv1 cells; experiment: Immunohistochemistry of 22Rv1 xenograft samples; assay type: in vivo, mice
Source text: Increased nuclear staining of tumor suppressor proteins Rb, p21, p53, APC and SMAD4 were also observed in samples treated with KPT-8602.
A tissue microarray (TMA) was constructed with tumor samples collected from 22Rv1 mouse prostate cancer cell. Paraffin sections of the TMA were processed ans stained with antibodies using a Biogenex 16000 automated stainer. Digital images of the slides were obtained through an Aperio AT Turbo scanner 20×. The following antibodies were used for immunohistochemistry staining: Cleaved Caspase 3 (Cell Singaling Technology, 9661), p21 (Cell Signaling Technology, 2947), APC (Abcam, ab15270), Ki67 (Cell Marque, 275R-18), Rb (Abcam, ab181616, p53 (Santa Cruz, sc-126), and SMAD4 (Santa Cruz, sc-7966).

[5] = system: Relapsed/Refractory Metastatic Castration Resistant Prostate Cancer (mCRPC); experiment: Clinical trial in relapsed/refractory mCRPC, KPT-8602 alone and with abiraterone; assay type: in vivo, human
Procedure: • 1. Histologically confirmed adenocarcinoma of the prostate with archival tumor tissue available for molecular analyses. • 2. Surgically or medically castrated, with testosterone levels of <50 ng/dL (<2.0 nM). • 3. Documented mCRPC progression as assessed by the Investigator with one of the following: • a. Prostate specific antigen (PSA) progression defined by a minimum of 3 rising PSA levels (at approximately Day −30 and approximately Day −45) with an interval of >1 week between each determination. The PSA values at the Screening visit should be >2 μg/L (>2 ng/mL); patients on systemic glucocorticoids for control of symptoms must have documented PSA progression by Prostate Cancer Working Group 3 (PCWG3) while on systemic glucocorticoids prior to commencing C1D1 of treatment. • b. Radiographic progression of soft tissue disease by modified RECIST criteria 1.1 or of bone metastasis with 2 or more documented new bone lesions on a bone scan with or without PSA progression. • 4. Initial response (per modified PCWG3 Guidelines) to second generation anti-hormonal therapy (examples: abiraterone, enzalutamide, TAK 700), but later relapsed. Disease relapse would be defined as progressive disease at the time of entry per inclusion criterion 3. • 5. Zero to 2 previous taxane-based chemotherapy regimens. • 6. At least 2 weeks from completion of any radiotherapy including a single fraction of radiotherapy for the purposes of palliation (confined to one field) is permitted. • 7. Patients should not be transfusion dependent. • 8. Albumin>2.5 g/dL. • 9. Adequate hematopoietic function: ANC≥1000/mm^3, hemoglobin (Hb)≥9.0 g/dL, and platelet count≥100,000/mm^3. • 10. Eastern Cooperative Oncology Group (ECOG) performance status of ≤1. • 11. Life expectancy of ≥4 months. Additional Criteria for Combination Therapy Patients (KPT-8602 and Abiraterone) • 12. Patients currently receiving treatment with abiraterone and appropriate to continue in the opinion of the Investigator (some patients may be progressing). Patients must also have been on and continue on a stable dose of corticosteroids (prednisone or dexamethasone) for 30 days prior to C1D1. B. Patient Characteristics and Demographics
Patients treated with KPT-8602 alone received oral KPT-8602 for 5 days per week (QDx5) at dose levels of 20 and 30 mg. Patients treated with KPT-8602 and abiraterone received oral KPT-8602 for 5 days per week (QDx5) at dose levels of 20 and 30 mg and the dose and schedule of abiraterone and corticosteroids that they were receiving at the time of enrollment. For example, a typical dose of ZYTIGA (abiraterone acetate) is 1000 mg orally once daily with prednisone 5 mg orally twice daily. A full cycle was 28 days long. A representative cycle of KPT-8602 dosing is oral administration 5 out of 7 consecutive days in a week for a 28-day cycle (e.g., Days 1-5, 8-12, 15-19 and 22-26 of each 28-day cycle).
Responses were assessed using RECIST v 1.1 criteria once every 28-day cycle. PR: Partial Response, SD: Stable Disease, PD: Progressive Disease, DCR: Disease Control Rate. 7 Non-evaluable patients: 2AE, 2 patient decision, 2 physician decision, 1 patient non-compliant.
All patients had their disease assessed per modified PCWG3 Guidelines including RECIST v1.1 (see below) by the following tests at pre-determined the time points. • PSA: Disease specific clinical lab assessment • Testosterone: Disease specific clinical lab assessment • Bone scan and CT (or MRI) scan of the abdomen and pelvis (RECIST v.1.1): Patients will receive a bone scan to monitor and assess bone disease progression and CT (or MRI) of the abdomen and pelvis (and chest, if indicated) to monitor and assess soft tissue disease progression per PCWG3 including RECIST v.1.1. […]

[6] = RECIST v1.1, evaluable patients, KPT-8602 20 and 30 mg QDx5

Q: Which “mRNA expression of AR” value (AR [1]) does the source give for `NC(=O)/C(=C/n1cnc(-c2cc(C(F)(F)F)cc(C(F)(F)F)c2)n1)c1cncnc1` [KPT-8602] here?
A: Its value is “significantly inhibited”.

Q: And the “mRNA expression of AR-v7” value (AR-v7)?
A: Its value is “significantly inhibited”.

Q: What about the “protein levels of AR” value (AR [2]) of the same compound?
A: The value was “significantly decreased”.

Q: What about the “protein levels of ARv” value (ARv) of the same compound?
A: The value was “significantly decreased”.

Q: And the survival [3]?
A: The survival was “prolongs”.

Q: What about the tumor growth [3] of the same compound?
A: Its tumor growth is “significantly inhibits”.

Q: What about the “median OS (overall survival)” value ([3]; Kaplan-Meier, end of study Day 35, vehicle 20 days) of the same compound?
A: Its value is “undefined”.

Q: And the “% TGI (tumor growth inhibition) on Day 16” value ([3]; compared to vehicle)?
A: The value was 87%.

Q: What about the “nuclear staining of tumor suppressor protein APC” value [4] of the same compound?
A: Its value is “Increased”.

Q: And the “nuclear staining of tumor suppressor protein Rb” value [4]?
A: The value was “Increased”.

Q: And the “nuclear staining of tumor suppressor protein SMAD4” value [4]?
A: The value was “Increased”.

Q: What about the “nuclear staining of tumor suppressor protein p21” value [4] of the same compound?
A: Its value is “Increased”.

Q: What about the “nuclear staining of tumor suppressor protein p53” value [4] of the same compound?
A: The value was “Increased”.

Q: What about the “apoptotic molecule (Cleaved Caspase 3)” value ([4]; compared to vehicle controls) of the same compound?
A: Its value is “increased”.

Q: And the “cell proliferation marker (Ki67)” value ([4]; compared to vehicle controls)?
A: Its value is “decreased”.

Q: What about the “median PFS” value ([5]; Kaplan-Meier analysis, evaluable patients) of the same compound?
A: Its value is 5.9 months.

Q: And the “DCR (PR + SD) SD ≥ 8 weeks, % of patients” value [5, 6]?
A: The value was 82%.

Q: What about the “DCR (PR + SD) SD ≥ 8 weeks, number of patients” value [5, 6] of the same compound?
A: The value was 9.

Q: And the “DCR (PR + SD) SD ≥ 16 weeks, % of patients” value [5, 6]?
A: Its value is 55%.

Q: And the “DCR (PR + SD) SD ≥ 16 weeks, number of patients” value [5, 6]?
A: Its value is 6.

Q: What about the “PD (Progressive Disease), % of patients” value [5, 6] of the same compound?
A: The value was “(18%)”.

Q: What about the “PD (Progressive Disease), number of patients” value [5, 6] of the same compound?
A: The value was 2.

Q: What about the “PR (Partial Response), % of patients” value [5, 6] of the same compound?
A: The value was “(9%)”.

Q: What about the “PR (Partial Response), number of patients” value [5, 6] of the same compound?
A: The value was 1.

Q: And the “Median ToT (Time on Treatment)” value ([5]; evaluable patients, 20 mg KPT-8602)?
A: Its value is 96 days.

Q: What about the “Median ToT (Time on Treatment)” value ([5]; evaluable patients, 30 mg KPT-8602) of the same compound?
A: Its value is 134 days.

Q: And the “Median ToT (Time on Treatment)” value ([5]; evaluable patients, all doses (20 and 30 mg KPT-8602))?
A: The value was 96 days.

From patent US12318386B2, “Combination of XPO1 inhibitors and second agents for the treatment of prostate cancer” (Karyopharm Therapeutics Inc., priority 2018, dated 2025)
